Results from the supplement of paper PMC4932681.

What was measured:
ZR-75-1 Tam2 [1] = test: drug sensitivity score (DSS) (DSS (dimensionless)); higher = more sensitive; extreme values may be limits of the assay; settings: 4-OH-tamoxifen in medium 1 µM; 72 h
Method in brief: (§1)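 Breast cancer cell lines and their resistant derivatives were seeded into 384-well plates containing library drugs at five concentrations across a 10 000-fold range, with resistant lines kept in medium with 1 μM of the selecting drug. After 72 h at 37 °C, CellTiter-Glo viability was read on a PHERAstar and normalised to vehicle-only and positive controls. Logistic dose–response fits in the Breeze pipeline gave drug sensitivity score, relative IC50 (curve midpoint) and top-dose inhibition.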

BT-474 Tam1 [2] = test: as above; settings: 4-OH-tamoxifen in medium 1 µM; 72 h
Method in brief: as §1

ZR-75-1 [3] = test: as above; settings: 72 h
Method in brief: as §1

BT-474 Tam2 [4] = test: as above; settings: 4-OH-tamoxifen in medium 1 µM; 72 h
Method in brief: as §1

MCF-7 [5] = test: as above; settings: 72 h
Method in brief: as §1

MCF-7 Tam1 [6] = test: as above; settings: 4-OH-tamoxifen in medium 1 µM; 72 h
Method in brief: as §1

ZR-75-1 Tam1 [7] = test: as above; settings: 4-OH-tamoxifen in medium 1 µM; 72 h
Method in brief: as §1

T-47D Tam1 [8] = test: as above; settings: 4-OH-tamoxifen in medium 1 µM; 72 h
Method in brief: as §1

T-47D [9] = test: as above; settings: 72 h
Method in brief: as §1

BT-474 [10] = test: as above; settings: 72 h
Method in brief: as §1

T-47D Tam2 [11] = test: as above; settings: 4-OH-tamoxifen in medium 1 µM; 72 h
Method in brief: as §1

ZR-75-1 Tam2 [12] = test: relative IC50 (midpoint of fitted logistic curve, plateau may be below 50% inhibition; CellTiter-Glo viability); higher = less potent; settings: 4-OH-tamoxifen in medium 1 µM; 72 h
Method in brief: as §1

BT-474 Tam1 [13] = test: as above; settings: 4-OH-tamoxifen in medium 1 µM; 72 h
Method in brief: as §1

ZR-75-1 [14] = test: as above; settings: 72 h
Method in brief: as §1

BT-474 Tam2 [15] = test: as above; settings: 4-OH-tamoxifen in medium 1 µM; 72 h
Method in brief: as §1

MCF-7 [16] = test: as above; settings: 72 h
Method in brief: as §1

MCF-7 Tam1 [17] = test: as above; settings: 4-OH-tamoxifen in medium 1 µM; 72 h
Method in brief: as §1

ZR-75-1 Tam1 [18] = test: as above; settings: 4-OH-tamoxifen in medium 1 µM; 72 h
Method in brief: as §1

T-47D Tam1 [19] = test: as above; settings: 4-OH-tamoxifen in medium 1 µM; 72 h
Method in brief: as §1

T-47D [20] = test: as above; settings: 72 h
Method in brief: as §1

BT-474 [21] = test: as above; settings: 72 h
Method in brief: as §1

T-47D Tam2 [22] = test: as above; settings: 4-OH-tamoxifen in medium 1 µM; 72 h
Method in brief: as §1

| Compound | relative IC50 (BT-474 Tam1 [13]) | relative IC50 (BT-474 Tam2 [15]) | relative IC50 (MCF-7 [16]; 4-OH-tamoxifen in medium 0 µM) | relative IC50 (MCF-7 [16]; 4-OH-tamoxifen in medium 1 µM) | relative IC50 (MCF-7 Tam1 [17]) | relative IC50 (T-47D Tam1 [19]) | relative IC50 (T-47D [20]; 4-OH-tamoxifen in medium 0 µM) | relative IC50 (T-47D [20]; 4-OH-tamoxifen in medium 1 µM) | relative IC50 (BT-474 [21]; 4-OH-tamoxifen in medium 0 µM) | relative IC50 (BT-474 [21]; 4-OH-tamoxifen in medium 1 µM) | relative IC50 (T-47D Tam2 [22]) | drug sensitivity score (ZR-75-1 Tam2 [1]) | drug sensitivity score (BT-474 Tam1 [2]) | drug sensitivity score (ZR-75-1 [3]; 4-OH-tamoxifen in medium 0 µM) | drug sensitivity score (ZR-75-1 [3]; 4-OH-tamoxifen in medium 1 µM) | drug sensitivity score (BT-474 Tam2 [4]) | drug sensitivity score (MCF-7 [5]; 4-OH-tamoxifen in medium 0 µM) | drug sensitivity score (MCF-7 [5]; 4-OH-tamoxifen in medium 1 µM) | drug sensitivity score (MCF-7 Tam1 [6]) | drug sensitivity score (ZR-75-1 Tam1 [7]) | drug sensitivity score (T-47D Tam1 [8]) | drug sensitivity score (T-47D [9]; 4-OH-tamoxifen in medium 0 µM) | drug sensitivity score (T-47D [9]; 4-OH-tamoxifen in medium 1 µM) | drug sensitivity score (BT-474 [10]; 4-OH-tamoxifen in medium 0 µM) | drug sensitivity score (BT-474 [10]; 4-OH-tamoxifen in medium 1 µM) | drug sensitivity score (T-47D Tam2 [11]) | relative IC50 (ZR-75-1 Tam2 [12]) | relative IC50 (ZR-75-1 [14]; 4-OH-tamoxifen in medium 0 µM) | relative IC50 (ZR-75-1 [14]; 4-OH-tamoxifen in medium 1 µM) | relative IC50 (ZR-75-1 Tam1 [18]) |
| --- | --- | --- | --- | --- | --- | --- | --- | --- | --- | --- | --- | --- | --- | --- | --- | --- | --- | --- | --- | --- | --- | --- | --- | --- | --- | --- | --- | --- | --- | --- |
| CNNCc1ccc(C(=O)NC(C)C)cc1 [Procarbazine] | > 10000 nM | > 10000 nM | > 10000 nM | > 10000 nM | > 10000 nM | > 10000 nM | > 10000 nM | > 10000 nM | > 10000 nM | > 10000 nM | > 10000 nM | 0 | 0 | 0 | 0 | 0 | 0 | 0 | 0 | 0 | 0 | 0 | 0 | 0 | 0 | 0 | > 10000 nM | > 10000 nM | > 10000 nM | > 10000 nM |
| CCc1c(C(=O)C(N)=O)c2c(OCC(=O)O)cccc2n1Cc1ccccc1 [Varespladib] | > 10000 nM | > 10000 nM |  | > 10000 nM | > 10000 nM | > 10000 nM | > 10000 nM | > 10000 nM | > 10000 nM | > 10000 nM | > 10000 nM | 0 | 0 | 0 | 0 | 0 | 0.0495 | 0 | 0 | 0 | 0 | 0 | 0 | 0 | 0 | 0 | > 10000 nM | > 10000 nM | > 10000 nM | > 10000 nM |
| O=C(O)CC[C@H]1CC[C@@](c2cc(F)ccc2F)(S(=O)(=O)c2ccc(Cl)cc2)CC1 [MK-0752] | > 1000 nM | > 1000 nM | > 1000 nM | > 1000 nM | > 1000 nM | > 1000 nM | > 1000 nM | > 1000 nM | > 1000 nM | > 1000 nM | > 1000 nM | 0 | 0 | 0 | 0 | 0 | 0 | 0 | 0 | 0 | 0 | 0 | 0 | 0 | 0 | 0 | > 1000 nM | > 1000 nM | > 1000 nM | > 1000 nM |

The next lines start with results.

| relative IC50 (BT-474 Tam1 [13]) | relative IC50 (BT-474 Tam2 [15]) | relative IC50 (MCF-7 [16]; 4-OH-tamoxifen in medium 0 µM) | relative IC50 (MCF-7 [16]; 4-OH-tamoxifen in medium 1 µM) | relative IC50 (MCF-7 Tam1 [17]) | relative IC50 (T-47D Tam1 [19]) | relative IC50 (T-47D [20]; 4-OH-tamoxifen in medium 0 µM) | relative IC50 (T-47D [20]; 4-OH-tamoxifen in medium 1 µM) | relative IC50 (BT-474 [21]; 4-OH-tamoxifen in medium 0 µM) | relative IC50 (BT-474 [21]; 4-OH-tamoxifen in medium 1 µM) | relative IC50 (T-47D Tam2 [22]) | Compound | drug sensitivity score (ZR-75-1 Tam2 [1]) | drug sensitivity score (BT-474 Tam1 [2]) | drug sensitivity score (ZR-75-1 [3]; 4-OH-tamoxifen in medium 0 µM) | drug sensitivity score (ZR-75-1 [3]; 4-OH-tamoxifen in medium 1 µM) | drug sensitivity score (BT-474 Tam2 [4]) | drug sensitivity score (MCF-7 [5]; 4-OH-tamoxifen in medium 0 µM) | drug sensitivity score (MCF-7 [5]; 4-OH-tamoxifen in medium 1 µM) | drug sensitivity score (MCF-7 Tam1 [6]) | drug sensitivity score (ZR-75-1 Tam1 [7]) | drug sensitivity score (T-47D Tam1 [8]) | drug sensitivity score (T-47D [9]; 4-OH-tamoxifen in medium 0 µM) | drug sensitivity score (T-47D [9]; 4-OH-tamoxifen in medium 1 µM) | drug sensitivity score (BT-474 [10]; 4-OH-tamoxifen in medium 0 µM) | drug sensitivity score (BT-474 [10]; 4-OH-tamoxifen in medium 1 µM) | drug sensitivity score (T-47D Tam2 [11]) | relative IC50 (ZR-75-1 Tam2 [12]) | relative IC50 (ZR-75-1 [14]; 4-OH-tamoxifen in medium 0 µM) | relative IC50 (ZR-75-1 [14]; 4-OH-tamoxifen in medium 1 µM) | relative IC50 (ZR-75-1 Tam1 [18]) |
| --- | --- | --- | --- | --- | --- | --- | --- | --- | --- | --- | --- | --- | --- | --- | --- | --- | --- | --- | --- | --- | --- | --- | --- | --- | --- | --- | --- | --- | --- | --- |
| 2.07 nM | 7.03 nM | 5.97 nM | 8.41 nM | 9.12 nM | 3.99 nM | 5.87 nM | 19.7 nM | 15.1 nM | 5.69 nM | 15.3 nM | COc1ncc(-c2ccc3nccc(-c4ccnnc4)c3c2)cc1NS(=O)(=O)c1ccc(F)cc1F | 19.4 | 31 | 19.3 | 16.3 | 25 | 18.1 | 19.8 | 13.1 | 18.6 | 22.4 | 19.3 | 15.6 | 18.5 | 25.9 | 15.7 | 10.7 nM | 7.56 nM | 10.7 nM | 10.4 nM |
| > 10000 nM | > 10000 nM | > 10000 nM |  | > 10000 nM | > 10000 nM | > 10000 nM |  | > 10000 nM | > 10000 nM | > 10000 nM | Nc1nc2[nH]cc(CCc3ccc(C(=O)N[C@@H](CCC(=O)O)C(=O)O)cc3)c2c(=O)[nH]1 [Pemetrexed] | 0 | 0 | 0 | 0 | 0 | 0 | 0.305 | 0 | 0 | 0 | 0 | 0 | 0 | 0 | 0 | > 10000 nM | > 10000 nM | > 10000 nM | > 10000 nM |
| > 10000 nM | > 10000 nM | > 10000 nM | > 10000 nM | > 10000 nM | > 10000 nM | > 10000 nM | > 10000 nM | > 10000 nM | > 10000 nM | > 10000 nM | Clc1ccc(C(c2ccccc2Cl)C(Cl)Cl)cc1 (configuration not stated) [Mitotane] | 0 | 0 | 0 | 0 | 0 | 0 | 0 | 0 | 0 | 0 | 0 | 0 | 0 | 0 | 0 | > 10000 nM | > 10000 nM | > 10000 nM | > 10000 nM |
| 218 nM | 337 nM | 2.65 nM | 49.6 nM | 57 nM | 526 nM | 47.5 nM | 299 nM | 71.1 nM | 171 nM | 811 nM | COCC[n+]1c2c(n(Cc3cnccn3)c1C)C(=O)c1ccccc1C2=O [YM155] | 16.2 | 19.6 | 28.5 | 19 | 16.6 | 43 | 26.5 | 25.8 | 15.3 | 14.2 | 27.1 | 17.6 | 25.6 | 20.9 | 11.4 | 358 nM | 36.5 nM | 202 nM | 454 nM |
